Results published in patent US20050112573A1, “Method of detecting toxic substance” (priority 2001, published 2005).

Tested on: yeast genes (level of expressed mRNA)
Assay: DNA chip analysis of expressed mRNA of yeast genes after 2 h culture with a toxic chemical substance
Format: cell-based, Saccharomyces cerevisiae S288C
Protocol: Yeast (Saccharomyces cerevtisiae S288C (α SUC2mal mel gap2 CUP1)) were cultured at 25° C. on YPD medium (yeast extract 1%, polypepton 2%, glucose 2%). One of toxic chemical substances was added to the cell at logarithmic growth phase, and the cell was further cultured for two hours. Cell was cultured without any chemical substance in the same condition, and was used as control. Concentrations of the chemical substances were defined to inhibit the growth of the yeast but not lead to death.
After the completion of cultivation, the culture was centrifuged to collect the cells. To the cells, sodium acetate buffer (50 mM sodium acetate, 10 mM EDTA, 1% SDS) was added, and the mixture was shaken at 65° C. for five minutes, followed by returning to room temperature, and obtaining the supernatant, which procedure was repeated two times. To the supernatant, ½ amount of a solution of phenol/chloroform was added, and the mixture was centrifuged to give a supernatant, which was added with an equal amount of chloroform, and the mixture was centrifuged to give a supernatant. To the supernatant, an equal amount of isopropanol containing 0.3 M sodium acetate was added, and the mixture was allowed to stand at room temperature for 30 minutes, after which the mixture was centrifuged to give a sediment of the whole RNAs. Seventy % ethanol was added to the sediment, and the mixture was again centrifuged to give a sediment, which was then dried and dissolved in water. mRNA was isolated from the whole RNAs as followings. In view of the fact that a poly A chain is attached to the 3′ terminus of mRNA, a polynucleotide having a poly T structure which was immobilized on the surface of latex beads was used to trap the mRNA, and then the mRNA was washed and eluted with spine column (Oligotex-dT30<Super>mRNA Purification Kit, Takara). Reverse transcription of the mRNA was conducted with a reverse transcriptase (Super Script II Reverse Transcriptase; catalogue No. 18064-014, GibcoBRL) using fluorescence-labeled nucleotides to give cDNAs that were introduced with Cy3-dUTP or Cy5-dUTP during the reverse transcription.
The labeled cDNAs were dissolved in TE buffer (10 mM Tris-HCl/1 mM EDTA, pH8.0), and the solution was dropped on the DNA chip containing the whole genes of yeast (DNA Chip Research Inc. Japan) so that the cDNAs were hybridized on the DNA chip at 65° C. for over 12 hours. The fluoresces intensity of the DNA chip was read with a scanner, and the ratio relative to the fluorescence intensity resulting from the absence of chemical substance was estimated as the following, which is shown in Tables 1 to 9: [formula]
In the Tables, “Intensity” indicated in the rightmost column is a value of the level of expressed mRNA of each gene in control cells as divided by the average level of the expressions of the whole genes.

SMILES: COc1cc(CNC(=O)CCCCC=CC(C)C)ccc1O [(12), 8-methyl-N-vanillyl-6-nonenamide]
- level of expressed mRNA in the presence of chemical substance/in its absence (gene YAL012W): 1.1
- The level of expressed mRNA in the presence of chemical substance/absence: YAL014C (gene YAL014C): 1.2
- The level of expressed mRNA in the presence of chemical substance/absence: YAL017W (gene YAL017W): 1.0
- The level of expressed mRNA in the presence of chemical substance/absence: YAL018C (gene YAL018C): 0.9
- level of expressed mRNA in the presence of chemical substance/in its absence (gene YAL038W): 1.2
- level of expressed mRNA in the presence of chemical substance/in its absence (gene YAL044C): 0.6
- The level of expressed mRNA in the presence of chemical substance/absence: YAL049C (gene YAL049C): 1.1
- level of expressed mRNA in the presence of chemical substance/in its absence (gene YAL054C): 1.0
- The level of expressed mRNA in the presence of chemical substance/absence: YAR047C (gene YAR047C): 0.9
- The level of expressed mRNA in the presence of chemical substance/absence: YAR064W (gene YAR064W): 0.8
- level of expressed mRNA in the presence of chemical substance/in its absence (gene YAR071W): 2.0
- level of expressed mRNA in the presence of chemical substance/in its absence (gene YBL001C): 0.7
- The level of expressed mRNA in the presence of chemical substance/absence: YBL044W (gene YBL044W): 0.9
- The level of expressed mRNA in the presence of chemical substance/absence: YBL100C (gene YBL100C): 0.7
- The level of expressed mRNA in the presence of chemical substance/absence: YBR012C (gene YBR012C): 1.0
- The level of expressed mRNA in the presence of chemical substance/absence: YBR013C (gene YBR013C): 1.2
- level of expressed mRNA in the presence of chemical substance/in its absence (gene YBR014C): 0.6
- level of expressed mRNA in the presence of chemical substance/in its absence (gene YBR023C): 0.8
- level of expressed mRNA in the presence of chemical substance/in its absence (gene YBR029C): 1.3
- level of expressed mRNA in the presence of chemical substance/in its absence (gene YBR035C): 1.2
- level of expressed mRNA in the presence of chemical substance/in its absence (gene YBR050C): 1.0
- The level of expressed mRNA in the presence of chemical substance/absence: YBR051W (gene YBR051W): 0.7
- The level of expressed mRNA in the presence of chemical substance/absence: YBR063C (gene YBR063C): 1.1
- The level of expressed mRNA in the presence of chemical substance/absence: YBR066C (gene YBR066C): 0.7
- level of expressed mRNA in the presence of chemical substance/in its absence (gene YBR068C): 0.8
- level of expressed mRNA in the presence of chemical substance/in its absence (gene YBR111C): 1.2
- The level of expressed mRNA in the presence of chemical substance/absence: YBR124W (gene YBR124W): 0.9
- The level of expressed mRNA in the presence of chemical substance/absence: YBR129C (gene YBR129C): 1.0
- level of expressed mRNA in the presence of chemical substance/in its absence (gene YBR145W): 1.0
- The level of expressed mRNA in the presence of chemical substance/absence: YBR162C (gene YBR162C): 0.7
- level of expressed mRNA in the presence of chemical substance/in its absence (gene YBR183W): 1.2
- level of expressed mRNA in the presence of chemical substance/in its absence (gene YBR222C): 0.9
- The level of expressed mRNA in the presence of chemical substance/absence: YBR255W (gene YBR255W): 0.7
- The level of expressed mRNA in the presence of chemical substance/absence: YBR281C (gene YBR281C): 0.5
- The level of expressed mRNA in the presence of chemical substance/absence: YBR287W (gene YBR287W): 1.2
- level of expressed mRNA in the presence of chemical substance/in its absence (gene YBR299W): 1.2
- level of expressed mRNA in the presence of chemical substance/in its absence (gene YCL009C): 1.7
- The level of expressed mRNA in the presence of chemical substance/absence: YCL044C (gene YCL044C): 0.9
- The level of expressed mRNA in the presence of chemical substance/absence: YCL056C (gene YCL056C): 1.0
- level of expressed mRNA in the presence of chemical substance/in its absence (gene YCL064C): 0.7
- The level of expressed mRNA in the presence of chemical substance/absence: YCR007C (gene YCR007C): 0.8
- level of expressed mRNA in the presence of chemical substance/in its absence (gene YCR037C): 0.7
- level of expressed mRNA in the presence of chemical substance/in its absence (gene YCR048W): 0.9
- level of expressed mRNA in the presence of chemical substance/in its absence (gene YCR098C): 1.3
- level of expressed mRNA in the presence of chemical substance/in its absence (gene YDL022W): 1.2
- The level of expressed mRNA in the presence of chemical substance/absence: YDL046W (gene YDL046W): 1.0
- The level of expressed mRNA in the presence of chemical substance/absence: YDL089W (gene YDL089W): 0.9
- The level of expressed mRNA in the presence of chemical substance/absence: YDL173W (gene YDL173W): 1.1
- The level of expressed mRNA in the presence of chemical substance/absence: YDL193W (gene YDL193W): 1.1
- The level of expressed mRNA in the presence of chemical substance/absence: YDL233W (gene YDL233W): 0.9
- level of expressed mRNA in the presence of chemical substance/in its absence (gene YDR009W): 1.0
- level of expressed mRNA in the presence of chemical substance/in its absence (gene YDR019C): 0.7
- The level of expressed mRNA in the presence of chemical substance/absence: YDR071C (gene YDR071C): 0.9
- The level of expressed mRNA in the presence of chemical substance/absence: YDR078C (gene YDR078C): 0.7
- The level of expressed mRNA in the presence of chemical substance/absence: YDR090C (gene YDR090C): 0.6
- The level of expressed mRNA in the presence of chemical substance/absence: YDR109C (gene YDR109C): 1.0
- The level of expressed mRNA in the presence of chemical substance/absence: YDR128W (gene YDR128W): 0.6
